Results from PubChem BioAssay (NCI).
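How tested: cells in 96-well plates exposed to compound for 48 hours at five concentrations. The concentration for full growth arrest is given as TGI.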

Key:
Assay in all cases: inhibition of tumour cell growth, NCI panel, 48 h
[1] = test system: UACC-62 melanoma
[2] = test system: EKVX NSCLC
[3] = test system: NCI/ADR-RES ovarian
[4] = test system: HOP-92 NSCLC
[5] = test system: TK-10 renal
[6] = test system: UACC-257 melanoma
[7] = test system: MOLT-4 leukemia
[8] = test system: HCT-116 colon
[9] = test system: LOX IMVI melanoma
[10] = test system: HT29 colon
[11] = test system: HS 578T breast
[12] = test system: A549 NSCLC
[13] = test system: NCI-H23 lung
[14] = test system: SF-268 CNS
[15] = test system: OVCAR-8 ovarian
[16] = test system: IGROV1 ovarian
[17] = test system: T-47D breast
[18] = test system: NCI-H460 lung
[19] = test system: SR leukemia

SMILES | TGI [1] [µM] | TGI [2] [µM] | TGI [3] [µM] | TGI [4] [µM] | TGI [5] [µM] | TGI [6] [µM] | TGI [7] [µM] | TGI [8] [µM] | TGI [9] [µM] | TGI [10] [µM] | TGI [11] [µM] | TGI [12] [µM] | TGI [13] [µM] | TGI [14] [µM] | TGI [15] [µM] | TGI [16] [µM] | TGI [17] [µM] | TGI [18] [µM] | TGI [19] [µM]
O=S(=O)(O)c1cc(S(=O)(=O)O)c2c(N=Nc3ccc(S(=O)(=O)O)c4ccccc34)c(O)ccc2c1 | > 100 | > 100 | > 100 | > 100 | > 100 | > 100 | > 100 | > 100 | > 100 | > 100 | > 100 | > 100 | > 100 | > 100 | > 100 | > 100 | > 100 | – | –
COc1ccc(C(=O)CCN(C)C)c2ccccc12 | > 58.1 | 55.8 | > 100 | 41.9 | > 54.4 | > 58.7 | 46 | 52.5 | 42.8 | 66.7 | 57 | > 100 | 51.4 | 55.4 | 40.5 | 40.2 | 49.5 | > 100 | –
CCCCc1nc(C)oc1C(C)C | > 100 | > 100 | > 100 | > 100 | > 100 | > 100 | > 100 | > 100 | > 100 | > 100 | > 100 | > 100 | > 100 | > 100 | > 100 | > 100 | > 100 | > 100 | –
COc1ccc(/C=C2/SC(=Nc3ccccc3)N(NC(=O)Cc3ccccc3)C2=O)c(OC)c1 | > 100 | > 100 | > 100 | 67.4 | > 100 | > 100 | > 100 | > 100 | – | > 100 | > 100 | > 100 | > 100 | > 100 | > 100 | > 100 | > 100 | > 100 | –
CC(C)(C)OC(=O)NCCC1CNc2ccccc21 (stereo not drawn) | > 100 | > 100 | > 100 | > 100 | > 100 | > 100 | > 100 | > 100 | – | > 100 | > 100 | > 100 | > 100 | > 100 | > 100 | > 100 | > 100 | > 100 | –
O=C1c2cn[nH]c2N=C(Nc2ccccc2)C1N=Cc1ccc([N+](=O)[O-])cc1 (stereo not drawn) | – | > 10 | – | – | > 10 | > 10 | > 10 | > 10 | > 10 | > 10 | > 10 | > 10 | > 10 | > 10 | > 10 | – | – | > 10 | > 10
C/C=C\C(CC(=O)NCCC1CN(C(=O)OCc2ccccc2)c2ccccc21)CC(=O)OC (stereo not drawn) | > 100 | > 100 | > 100 | > 100 | > 100 | > 100 | > 100 | > 100 | – | > 100 | > 100 | > 100 | > 100 | > 100 | > 100 | > 100 | – | > 100 | –
CCOP(=O)(Nc1ccc(-c2ccc(N)cc2)cc1)OCC | > 100 | > 100 | > 100 | > 100 | > 100 | > 100 | > 100 | > 100 | – | > 100 | > 100 | > 100 | > 100 | > 100 | > 100 | > 100 | – | > 100 | –
N#Cc1ccccc1NC(=O)C(=O)C(C(=O)c1ccncc1)C1OC(=O)c2ccccc21 (stereo not drawn) | > 100 | > 100 | – | > 100 | > 100 | > 100 | – | > 100 | > 100 | > 100 | – | > 100 | > 100 | > 100 | > 100 | > 100 | – | > 100 | > 100
Cc1c(C(=O)Nc2ccccc2)nnn1-c1ccnc2cc(C(F)(F)F)ccc12 | > 100 | > 100 | > 100 | 95.4 | > 100 | > 100 | 79.6 | > 100 | 78.1 | > 100 | > 100 | > 100 | > 100 | > 100 | > 100 | > 100 | > 100 | > 100 | –
Cc1cn(C2CC(N=[N+]=[N-])C(CO)O2)c(=O)n(CCCCBr)c1=O (stereo not drawn) | > 100 | > 100 | > 100 | > 100 | > 100 | > 100 | > 100 | > 100 | > 100 | > 100 | > 100 | > 100 | > 100 | > 100 | > 100 | > 100 | > 100 | > 100 | –
C1=CCC[C@@H]2CN3CCCC/C=C\CCCC[C@H]4C[C@H](CN(CCCCCCCC1)C4)[C@H]2CC3 | 16.9 | 21.6 | – | – | 15.8 | 18.1 | 21.2 | 16.3 | 16 | 20.8 | 20.2 | 17.8 | 34.5 | 21.3 | 17.5 | 18 | 20.8 | 18.7 | 20.1
CC(ON1[C@](C)(c2ccccc2)CC[C@@]1(C)c1ccccc1)c1ccccc1 (stereo partly drawn) | – | 77.9 | > 100 | > 100 | > 100 | > 100 | 46.1 | > 100 | > 100 | > 100 | > 100 | > 100 | > 100 | > 100 | > 100 | > 100 | 87.3 | > 100 | –
